In patent US20250276955A1, “CORONAVIRUS MAIN PROTEASE INHIBITORS AND METHODS USING SAME” (Baylor College of Medicine, priority 2021, published 2025):
≈ marks a conversion by molar mass, not a printed value. Entries after “also recorded” stand apart in the source; their conditions may differ. Read-outs that look alike come from different tables or passages of the source.

Experiments:
SARS-COV-2 M^pro-His6 = SARS-COV-2 M^pro-His6 (Severe acute respiratory syndrome coronavirus 2, UniProt P0DTD1); experiment: biochemical; assay type: biochemical
[1] = target: SARS-COV-2 M^pro (authentic N- and C-termini) (Severe acute respiratory syndrome coronavirus 2, UniProt P0DTD1); experiment: biochemical; assay type: biochemical
[2] = target: SARS-CoV-2 main protease (M^pro) (Severe acute respiratory syndrome coronavirus 2, UniProt P0DTD1); experiment: Protein thermal shift stability assay (SYPRO Orange); assay type: binding
HOVPro-Gi.1 = target: T1, HOVPro-Gi.1 (Norovirus, UniProt Q83883); experiment: Thermal shift, HOVPro-Gi.1; assay type: binding
T1 construct: HOVPro-Gi.1

HOVPro-Gii.4 = experiment: Thermal shift, HOVPro-Gii.4; assay type: binding
human thrombin = target: T2, human thrombin (Homo sapiens, UniProt P00734); experiment: Thrombin fluorescence assay; assay type: biochemical
T2 construct: purchased Sigma-Aldrich MAK243

Human Cathepsin B = target: T3, Human Cathepsin B (Homo sapiens, UniProt P07858); experiment: Cathepsin B assay; assay type: biochemical
T3 construct: purchased BPS Bioscience 79590
Experimental: A kit from BPS Bioscience (#79590) was used with adjustments to the manufacturer's protocol as follows: The activated enzyme was diluted 250-fold just before use, and the reaction was run at RT in black 96 half-area plates in a total reaction volume of 50 uL containing 0.01% Tween-20. Instead of measuring endpoints at 60 min the increase in fluorescence (Ex 360 nm, Em 460 nm) per second (RFU/s) was obtained from linear progress curves over 10 min. Fractional activities were calculated from reactions with no inhibitors. E-64 was used as a positive control.

[3] = Metabolic stability in mouse liver microsomes; assay type: in vitro ADME; conditions: mouse, liver microsomes; for half-life at 2 μM: Table 4, read-out: MLM t1/2
Experimental: (§1) The samples were collected at specific time-points 0, 30, and 60 min in duplicate. The reactions were terminated by adding an equivalent volume of ice-cold methanol and vortexed. […] Three μL of the supernatant was analyzed by UHPLC-Q Exactive Orbitrap MS (Thermo Fisher Scientific, USA) equipped with 50 mm×4.6 mm column (XDB C-18, Agilent Technologies, USA). The column temperature was maintained at 40° C. The flow rate was at 0.3 mL/min with a 30% mobile phase (acetonitrile containing 0.1% formic acid). Q Exactive MS was operated in positive mode with electrospray ionization. Ultra-pure nitrogen was applied as the sheath (45 arbitrary unit), auxiliary (10 arbitrary unit), sweep (1.0 arbitrary unit) and the collision gas. […] MS data were acquired from 80 to 1,200 Da in profile mode.

[4] = Metabolic stability in human liver microsomes; assay type: in vitro ADME; conditions: human, liver microsomes; for half-life at 2 μM: Table 4, read-out: HLM t1/2
Experimental: as §1

[5] = 293T relative cell viability; conditions: human, 293T cells
[6] = Apparent solubility in PBS buffer; conditions: for solubility: PBS buffer with 2% DMSO, aqueous buffer, kinetic from dmso stock
renin = target: T4, renin (Homo sapiens, UniProt P00797); experiment: Renin assay; assay type: biochemical
T4 construct: purchased BPS Bioscience 80211
T4 sequence (P00797 67-406): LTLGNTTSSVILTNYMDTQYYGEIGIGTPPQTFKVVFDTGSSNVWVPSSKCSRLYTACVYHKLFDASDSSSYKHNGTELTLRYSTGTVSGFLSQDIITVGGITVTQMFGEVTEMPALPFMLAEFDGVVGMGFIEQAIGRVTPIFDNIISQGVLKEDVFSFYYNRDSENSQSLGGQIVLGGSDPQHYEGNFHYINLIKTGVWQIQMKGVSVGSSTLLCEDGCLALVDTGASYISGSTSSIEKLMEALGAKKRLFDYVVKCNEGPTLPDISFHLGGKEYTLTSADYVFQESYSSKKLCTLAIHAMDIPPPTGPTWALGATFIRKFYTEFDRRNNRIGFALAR
Experimental: A kit from BPS Bioscience (#80211) was used with adjustments to the manufacturer's protocol as follows: The reaction was run at RT in black 96 half-area plates in a total reaction volume of 50 uL containing 0.01% Tween-20. Instead of measuring endpoints at 30 min the increase in fluorescence (Ex 490 nm, Em 520 nm) per second (RFU/s) was obtained from linear progress curves over 10 min. Fractional activities were calculated from reactions with no inhibitors. Aliskiren was used as a positive control.

[7] = target: T5, matrix metallopeptidase 1 (MMP-1) (Homo sapiens, UniProt P03956); experiment: MMP-1 assay; assay type: biochemical
T5 construct: purchased Biovision K794-100
T5 sequence (P03956 100-469): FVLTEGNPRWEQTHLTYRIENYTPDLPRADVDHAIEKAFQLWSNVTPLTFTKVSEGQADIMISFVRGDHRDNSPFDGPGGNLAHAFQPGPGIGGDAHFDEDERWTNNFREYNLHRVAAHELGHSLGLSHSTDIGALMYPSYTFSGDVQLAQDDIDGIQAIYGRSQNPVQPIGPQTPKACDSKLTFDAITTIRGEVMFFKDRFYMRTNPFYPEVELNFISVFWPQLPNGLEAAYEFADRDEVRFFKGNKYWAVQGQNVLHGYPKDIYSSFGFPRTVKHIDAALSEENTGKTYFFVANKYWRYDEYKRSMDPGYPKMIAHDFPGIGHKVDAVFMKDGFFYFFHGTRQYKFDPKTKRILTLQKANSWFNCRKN
Experimental: A kit from Biovision (#K794-100) was used with adjustments to the manufacturer's protocol as follows: The enzyme was reconstituted according to protocol and then diluted 5-fold with assay buffer just before use. The unknown fluorogenic substrate was further diluted 10-fold with the provided assay buffer. The reaction was run at 37 C in black 96 half-area plates in a total reaction volume of 50 μL containing 0.01% Tween-20. The increase in fluorescence (Ex 490 nm, Em 520 nm) per second (RFU/s) was obtained from linear progress curves over 10 min. Fractional activities were calculated from reactions with no inhibitors. GM 6001 was used as a positive control.

Pharmacokinetics in mice = assay type: in vivo; conditions: 50 mg/kg intraperitoneal, plasma
Experimental: The whole blood samples were span at 2,000 rcf for 5 min for the separation of plasma. […] The concentration of these compounds in plasma were quantified using a calibration curve.

HepG2 cells = experiment: HepG2 cytotoxicity assay (XTT); conditions: Homo sapiens, HepG2, 24 h, read-out: HepG2 cell viability IC50

T1 sequence (Q83883 1101-1281): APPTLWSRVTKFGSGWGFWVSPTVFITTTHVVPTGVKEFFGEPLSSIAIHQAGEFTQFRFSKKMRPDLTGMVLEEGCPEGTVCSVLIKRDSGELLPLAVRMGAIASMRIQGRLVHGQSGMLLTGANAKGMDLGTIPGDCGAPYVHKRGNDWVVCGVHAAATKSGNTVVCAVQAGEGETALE

| SMILES | ΔTm of HOVPro-Gi.1 at 50 μM compound conc. (HOVPro-Gi.1) | ΔTm of HOVPro-Gii.4 at 50 μM compound conc. (HOVPro-Gii.4) | thrombin inhibition (in words) (human thrombin) | Human Cathepsin B, Fractional Remaining Activity (Human Cathepsin B) | microsomal CLint at 2 μM [3] | half-life at 2 μM [3] | microsomal CLint at 2 μM [4] | half-life at 2 μM [4] | cytotoxicity at 3 day, 10 μM [5] | solubility [6] | ΔTm of Mpro at 50 μM compound conc. ([2]; 50 μM compound, […]) | Thrombin inhibition (human thrombin; fluorescence assay) | cathepsin B inhibition (in words) (Human Cathepsin B) | renin inhibition (in words) (renin) | MMP-1 inhibition (in words) [7] | AUC0-t (Pharmacokinetics in mice) | CL/F (Pharmacokinetics in mice) | Tmax (Pharmacokinetics in mice) | thrombin inhibition (in words) (human thrombin; fluorescence assay) | other results |
| --- | --- | --- | --- | --- | --- | --- | --- | --- | --- | --- | --- | --- | --- | --- | --- | --- | --- | --- | --- | --- |
| COc1cc(-c2cccc3[nH]ncc23)cc(C=O)c1OCC(=O)N1CCC(Oc2cccc(C(=O)N(C)C)c2)C1 (centres unmarked) [CDD-1714, 3-((1-(2-(2-formyl-4-(1H-indazol-4-yl)-6-methoxyphenoxy)acetyl)pyrrolidin-3-yl)oxy)-N,N-dimethylbenzamide] | −0.11 °C | −0.41 °C | No inhibition | 0.92 | 130 µL/min/mg | 10.7 min | 132 µL/min/mg | 10.5 min | 21% | 54.4 µM (≈ 29.5 µg/mL) | – | – | – | – | – | – | – | – | – | Ki (SARS-COV-2 M^pro-His6; 25 nM enzyme, 15 μM fluorescent peptide, Morrison equation, Inactive = less than 50% inhibition at 25 μM compound, read-out: M^pro-His Ki): 20.2 ± 3 nM; Ki ([1]; Morrison equation, read-out: apparent Ki against M^pro): 24.4 nM; stabilization of M^pro in thermal shift assay (in words) [2]: stabilized; also recorded: concentration-dependent stabilization; ΔTm of Mpro at 50 μM compound conc. [2]: 2.93 °C; Thrombin inhibition (human thrombin): None |
| CCC[C@H](NC(=O)c1cccc2nc(-c3cncc4ccccc34)n([C@H]3C[C@H](C(=O)NC)C3)c12)c1ccc(OC(F)F)cc1 [CDD-1780] | −0.18 °C | −1.23 °C | – | 0.95 | 39.5 µL/min/mg | 35.1 min | 76.1 µL/min/mg | 18 min | 6% | 41.8 µM (≈ 25 µg/mL) | 9.19 °C | None | – | – | – | – | – | – | – | Ki (SARS-COV-2 M^pro-His6; Table 3, column a (footnote not given), read-out: Kiapp (nM)^a): 13.7 ± 1.5 nM; Ki ([1]; Table 3, column b (footnote not given), read-out: Kiapp (nM)^b): 15.7 ± 1.6 nM |
| CNC(=O)CCCn1c(-c2cncc3ccccc23)nc2cccc(C(=O)N[C@@H](C)c3ccc4ccccc4c3)c21 [CDD-1845] | – | – | negative | – | – | – | – | – | – | – | – | – | negative | negative | negative | 14.87 ± 7.79 µM·h | 4.02 ± 1.98 mg/(hr · μmol/L)/kg | 19.8 ± 8.4 min | – | AUC0-∞ (Pharmacokinetics in mice): 14.93 ± 7.85 µM·h; Cmax (Pharmacokinetics in mice): 8.93 ± 4.55 µM; MRT0-t (Pharmacokinetics in mice): 73.2 ± 1.8 min; MRT0-∞ (Pharmacokinetics in mice): 75 ± 1.2 min; T1/2 (Pharmacokinetics in mice): 68.4 ± 19.2 min |
| CNCc1cc(-c2cccc3[nH]ncc23)cc(OC)c1OCC(=O)N(C)C [CDD-1777] | – | – | – | – | – | – | – | – | 4% | 195 µM (≈ 71.7 µg/mL) | 1.00 °C | – | – | – | – | – | – | – | – | M^pro-His Ki (SARS-COV-2 M^pro-His6): Inactive; Ki,app [1]: Inactive; M^pro Ki [1]: Inactive |
| CNC(=O)[C@H]1C[C@H](n2c(-c3cncc4ccccc34)nc3cccc(C(=O)NC(C)c4ccc5ccccc5c4)c32)C1 (some centres unmarked) [CDD-1819] | – | – | – | – | – | – | – | – | – | – | – | – | negative | negative | negative | – | 7.26 ± 1.81 mg/(hr · μmol/L)/kg | – | negative | MRT last (Pharmacokinetics in mice; mouse, ip, read-out: MRT0-t): 78.6 ± 7.2 min; MRT inf (Pharmacokinetics in mice; mouse, ip, read-out: MRT0-∞): 85.2 ± 9.6 min; Tmax (Pharmacokinetics in mice; mouse, ip, read-out: Tmax): 19.8 ± 8.4 min; IC50 (HepG2 cells): > 100000 nM |
| CCCC(NC(=O)c1cccc2nc(-c3cncc4ccccc34)n([C@H]3C[C@H](C(=O)NC)C3)c12)c1ccc(C(F)(F)F)cc1 (some centres unmarked) [CDD-1733] | – | – | – | 0.91 | – | – | – | – | – | – | – | None | negative | negative | negative | 7.80 ± 3.22 µM·h | 7.73 ± 2.75 mg/(hr · μmol/L)/kg | 60 min | No inhibition; also recorded: negative | ΔTm of Mpro at 50 μM compound conc. ([2]; 50 μM compound, […], 50 µM): 7.75 °C; ΔTm of HOVPro-Gi.1 at 50 μM compound conc. (HOVPro-Gi.1; 50 µM): −0.74 °C; ΔTm of HOVPro-Gii.4 at 50 μM compound conc. (HOVPro-Gii.4; 50 µM): −1.2 °C; Measured apparent solubility in PBS buffer (2% DMSO) ([6]; PBS buffer, 2% DMSO): 30.3 µM |
